Results from publication PMC4710522, “A Novel Triazolopyridine-Based Spleen Tyrosine Kinase Inhibitor That Arrests Joint Inflammation” (PLoS ONE, 2016).
“And” between values parts separate entries of the source, which are not always exact repeats. Equal entries are not always repeated.

Legend:
[1] = male rats; cited from earlier work
[2] = biological target: T1, FGFR4_h (Homo sapiens, UniProt P22455); assay: SelectScreen kinase assay; format: biochemical; settings: KM ATP, read-out: % control
T1 construct: purchased Life Technologies (Invitrogen) SelectScreen, Z'-LYTE / Adapta

[3] = biological target: Syk (Homo sapiens, UniProt P43405); assay: Syk kinase mode of inhibition studies (Caliper LC3000); format: biochemical
Protocol: Syk kinase mode of inhibition studies, including parameters described in Fig 1, were conducted on the LC3000 platform by Caliper Life Sciences (Hopkinton, MA) according to standard protocols developed by the supplier. […] Non-kinase enzyme assays and GPCR, ion channel, and transporter binding assays were run by CEREP (France). Non-GLP manual patch clamp hERG assays were run by ChanTest (Cleveland, Ohio). Vivid® Assay kits (Life Technologies) were used to measure the cytochrome P450 inhibition of the compound against CYP3A, CYP2C9, CYP2C19, CYP2D6, and CYP1A2, as described.

[4] = rat pharmacokinetics; format: in vivo; settings: Sprague-Dawley, plasma
Protocol: Male and Female Sprague-dawley rats with jugular vein cannulation were obtained from Charles River Laboratories. All rats were maintained under standard conditions with access to food and water ad libitum. For intravenous (i.v.) dosing, CC-509 was dissolved in DMA/PEG400 (15/85, V/V). A dose of 2 mg/kg was administered to three male rats via jugular vein cannula with a dosing volume of 2 mL/kg followed by flushing 0.5 mL saline through the cannula. Blood were collected at 0.083, 0.25, 0.5, 1, 2, 4, 6, 8 and 24hr post dose. Plasma samples were separated by centrifugation of blood and stored at -20°C until analysis. For oral administration, four female rats (220–250g) were fasted for 12hr but allowed to access water prior to the dosing. CC-509 was formulated in 20% Captisol as a solution and was administered to the rats at 10 mg/kg by oral gavage with a dosing volume of 5mL/kg. Food was returned to the rats 2hr post dosing. Blood samples were collected at 0.5, 1, 2, 4, 6, 8 and 24hr post dose. Plasma samples were separated by centrifugation of blood and stored at -20°C until analysis. Plasma concentrations of CC-509 were quantified by a LC/MS/MS method. A total of 50 microliters (μL) of each plasma sample was extracted with three volumes of mixed solvent (methanol:acetonitrile (1:1). The extracted samples were filtered through a filtration plate (0.45μm, Varian, Inc.) and the filtrates were injected onto a LC-MS system. The LC-MS system consisted of a ThermoScientific (Waltham, MA) TSQ Quantum Ultra™ Mass Spectrometer coupled with a Thermo Accela™ ultra-high pressure liquid chromatogram (UPLC) system. Separation was achieved on a Thermo Hypersil Gold™ column (50 x 2.1 mm, 1.9 μm) by running a linear gradient of mobile phase at a flow rate of 0.5 mL/min. Mobile phase A and B consisted of 0.1% formic acid in water and 0.1% formic acid in methanol, respectively. Quantitation was performed using selected reaction monitoring (SRM) at the transition m/z 448 to m/z 364 for CC-509. PK parameters in plasma were estimated by WinNonLin software (Pharsight, Princeton, NJ) using non-compartmental analysis. For i.v. dosing, plasma clearance (CLp), volume distribution at steady-state (Vss) and mean residence time (MRT) were estimated. For oral administration, the maximum plasma concentration (Cmax), the time when the maximum plasma concentration is reached (Tmax) and area under the curve from 0 to infinity (AUC0-inf) were calculated.

[5] = system: proinflammatory analytes in paw tissue; assay: inflammatory cytokines measured in the paw, rat CIA; format: in vivo
Protocol: Following the last administration of CC-509, paw samples were collected and processed for cytokine and chemokine analysis (Aushon Biosciences, Billerica, MA). Briefly paws were snap-frozen and pulverized in liquid nitrogen followed by addition of cell signal lysis buffer in the presence of protease and phosphatase inhibitors (Sigma Chemicals, St. Louis, MO). Samples were homogenized on high speed for 30 seconds, incubated on ice for 20 minutes then sonicated at high intensity for 1 minute. Samples were spun at high speed and supernatants were collected for cytokine analysis.

[6] = biological target: T2, NEK7_h (Homo sapiens, UniProt Q8TDX7); assay: SelectScreen kinase assay; format: biochemical; settings: KM ATP, read-out: % control
T2 construct: purchased Life Technologies (Invitrogen) SelectScreen, Z'-LYTE / Adapta

[7] = biological target: T3, LRRK2 G2019S_h (Homo sapiens, UniProt Q5S007, G2019S); assay: SelectScreen kinase assay; format: biochemical; settings: KM ATP, read-out: % control
T3 construct: purchased Life Technologies (Invitrogen) SelectScreen, Z'-LYTE / Adapta
T3 sequence (Q5S007 whole entry G2019S): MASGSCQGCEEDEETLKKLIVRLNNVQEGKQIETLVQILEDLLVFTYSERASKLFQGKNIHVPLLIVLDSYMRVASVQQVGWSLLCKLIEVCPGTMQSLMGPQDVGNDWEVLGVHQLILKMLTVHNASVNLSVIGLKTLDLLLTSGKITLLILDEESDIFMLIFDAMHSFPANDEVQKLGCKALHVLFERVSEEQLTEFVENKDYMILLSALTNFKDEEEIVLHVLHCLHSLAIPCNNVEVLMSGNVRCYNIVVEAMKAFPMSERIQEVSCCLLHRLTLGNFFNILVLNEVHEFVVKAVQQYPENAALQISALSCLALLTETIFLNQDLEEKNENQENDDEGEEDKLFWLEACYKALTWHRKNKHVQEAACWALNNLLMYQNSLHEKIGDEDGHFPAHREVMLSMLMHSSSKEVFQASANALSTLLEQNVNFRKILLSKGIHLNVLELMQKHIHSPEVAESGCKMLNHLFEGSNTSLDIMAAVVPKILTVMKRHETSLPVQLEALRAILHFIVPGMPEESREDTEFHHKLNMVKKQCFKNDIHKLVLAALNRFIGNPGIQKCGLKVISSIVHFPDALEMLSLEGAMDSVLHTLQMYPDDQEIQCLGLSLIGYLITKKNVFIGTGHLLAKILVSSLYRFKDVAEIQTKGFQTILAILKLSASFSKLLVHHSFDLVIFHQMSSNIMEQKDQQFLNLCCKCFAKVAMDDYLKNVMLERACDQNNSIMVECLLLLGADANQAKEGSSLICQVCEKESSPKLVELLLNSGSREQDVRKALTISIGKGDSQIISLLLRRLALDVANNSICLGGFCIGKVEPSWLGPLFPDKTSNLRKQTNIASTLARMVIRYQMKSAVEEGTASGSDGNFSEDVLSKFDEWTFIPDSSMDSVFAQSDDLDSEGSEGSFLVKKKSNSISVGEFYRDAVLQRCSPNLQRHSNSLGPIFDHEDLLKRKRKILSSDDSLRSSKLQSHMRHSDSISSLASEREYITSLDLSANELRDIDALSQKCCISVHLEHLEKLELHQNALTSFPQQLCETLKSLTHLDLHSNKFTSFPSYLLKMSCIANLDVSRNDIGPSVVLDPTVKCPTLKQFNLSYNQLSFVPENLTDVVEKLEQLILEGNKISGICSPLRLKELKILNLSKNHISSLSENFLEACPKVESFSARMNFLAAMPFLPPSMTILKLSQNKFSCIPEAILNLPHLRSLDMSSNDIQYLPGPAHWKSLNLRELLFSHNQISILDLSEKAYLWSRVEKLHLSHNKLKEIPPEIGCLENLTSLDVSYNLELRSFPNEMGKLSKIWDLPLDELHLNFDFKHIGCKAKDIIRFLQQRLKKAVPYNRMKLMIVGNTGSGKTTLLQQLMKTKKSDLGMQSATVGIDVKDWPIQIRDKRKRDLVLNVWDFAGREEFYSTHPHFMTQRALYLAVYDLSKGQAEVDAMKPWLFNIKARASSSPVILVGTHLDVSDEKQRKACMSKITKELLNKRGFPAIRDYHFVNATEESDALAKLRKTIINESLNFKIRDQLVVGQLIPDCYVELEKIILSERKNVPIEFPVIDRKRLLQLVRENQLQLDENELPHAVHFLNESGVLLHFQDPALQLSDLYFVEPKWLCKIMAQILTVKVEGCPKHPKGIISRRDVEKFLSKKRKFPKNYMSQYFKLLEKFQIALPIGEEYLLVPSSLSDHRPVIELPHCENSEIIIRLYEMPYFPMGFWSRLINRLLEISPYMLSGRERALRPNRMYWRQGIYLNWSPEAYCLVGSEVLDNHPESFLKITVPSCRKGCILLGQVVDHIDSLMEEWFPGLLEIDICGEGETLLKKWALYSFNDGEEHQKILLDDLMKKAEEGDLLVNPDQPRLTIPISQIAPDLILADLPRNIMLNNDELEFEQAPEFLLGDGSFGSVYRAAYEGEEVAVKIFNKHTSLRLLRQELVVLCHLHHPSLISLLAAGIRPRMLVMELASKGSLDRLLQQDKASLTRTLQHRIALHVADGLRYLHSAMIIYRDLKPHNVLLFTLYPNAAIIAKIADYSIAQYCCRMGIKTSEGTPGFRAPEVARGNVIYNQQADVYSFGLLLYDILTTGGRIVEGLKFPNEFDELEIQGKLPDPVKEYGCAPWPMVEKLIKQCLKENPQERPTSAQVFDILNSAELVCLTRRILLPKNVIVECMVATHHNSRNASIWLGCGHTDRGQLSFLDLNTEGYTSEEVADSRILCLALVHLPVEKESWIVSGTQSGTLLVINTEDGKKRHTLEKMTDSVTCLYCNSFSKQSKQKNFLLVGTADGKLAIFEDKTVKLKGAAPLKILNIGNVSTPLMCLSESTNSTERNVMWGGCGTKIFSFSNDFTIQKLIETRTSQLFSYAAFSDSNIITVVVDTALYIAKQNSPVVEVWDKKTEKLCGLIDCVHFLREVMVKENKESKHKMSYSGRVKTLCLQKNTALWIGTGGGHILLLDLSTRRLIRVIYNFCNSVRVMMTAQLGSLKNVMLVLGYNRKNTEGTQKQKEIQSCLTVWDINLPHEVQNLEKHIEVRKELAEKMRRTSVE

[8] = biological target: Flt4_h (Homo sapiens, UniProt P35916); assay: SelectScreen kinase assay; format: biochemical
Sequence of Flt4_h (P35916 25-1363): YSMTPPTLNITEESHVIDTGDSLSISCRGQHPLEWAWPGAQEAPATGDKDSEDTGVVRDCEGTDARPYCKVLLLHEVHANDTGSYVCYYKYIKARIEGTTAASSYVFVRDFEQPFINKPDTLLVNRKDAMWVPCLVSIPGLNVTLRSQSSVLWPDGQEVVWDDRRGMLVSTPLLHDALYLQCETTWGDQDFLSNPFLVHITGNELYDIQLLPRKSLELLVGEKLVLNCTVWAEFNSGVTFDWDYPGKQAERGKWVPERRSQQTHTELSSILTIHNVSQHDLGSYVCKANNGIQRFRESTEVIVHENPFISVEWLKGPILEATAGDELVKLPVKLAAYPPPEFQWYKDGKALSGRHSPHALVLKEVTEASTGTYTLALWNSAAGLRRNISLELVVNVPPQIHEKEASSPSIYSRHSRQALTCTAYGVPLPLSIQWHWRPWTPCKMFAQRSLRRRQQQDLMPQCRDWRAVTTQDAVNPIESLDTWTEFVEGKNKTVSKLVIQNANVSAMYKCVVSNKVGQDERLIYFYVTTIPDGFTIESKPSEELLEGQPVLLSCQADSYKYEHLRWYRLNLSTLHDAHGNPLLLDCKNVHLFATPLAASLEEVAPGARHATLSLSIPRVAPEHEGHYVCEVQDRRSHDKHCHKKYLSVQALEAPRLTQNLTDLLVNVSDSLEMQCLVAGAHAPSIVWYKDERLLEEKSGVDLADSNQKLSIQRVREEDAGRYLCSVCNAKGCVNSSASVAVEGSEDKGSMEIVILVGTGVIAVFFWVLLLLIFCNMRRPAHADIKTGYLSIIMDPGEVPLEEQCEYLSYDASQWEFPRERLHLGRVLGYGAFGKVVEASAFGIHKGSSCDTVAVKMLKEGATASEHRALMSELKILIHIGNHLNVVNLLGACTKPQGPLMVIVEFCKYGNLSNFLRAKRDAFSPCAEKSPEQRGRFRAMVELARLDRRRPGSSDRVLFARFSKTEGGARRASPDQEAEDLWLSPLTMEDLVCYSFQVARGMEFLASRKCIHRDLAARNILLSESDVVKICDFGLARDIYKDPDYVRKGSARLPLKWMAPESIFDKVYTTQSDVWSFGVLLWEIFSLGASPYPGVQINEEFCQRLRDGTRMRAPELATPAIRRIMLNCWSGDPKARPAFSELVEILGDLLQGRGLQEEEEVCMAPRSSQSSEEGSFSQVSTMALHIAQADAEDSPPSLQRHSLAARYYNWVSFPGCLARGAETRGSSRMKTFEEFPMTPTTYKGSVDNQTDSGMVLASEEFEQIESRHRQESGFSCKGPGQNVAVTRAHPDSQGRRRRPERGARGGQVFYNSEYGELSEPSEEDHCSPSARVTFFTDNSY

[9] = biological target: T4, PKC-iota_h (Homo sapiens, UniProt P41743); assay: SelectScreen kinase assay; format: biochemical; settings: KM ATP, read-out: % control
T4 construct: purchased Life Technologies (Invitrogen) SelectScreen, Z'-LYTE / Adapta
T4 sequence (P41743 whole entry): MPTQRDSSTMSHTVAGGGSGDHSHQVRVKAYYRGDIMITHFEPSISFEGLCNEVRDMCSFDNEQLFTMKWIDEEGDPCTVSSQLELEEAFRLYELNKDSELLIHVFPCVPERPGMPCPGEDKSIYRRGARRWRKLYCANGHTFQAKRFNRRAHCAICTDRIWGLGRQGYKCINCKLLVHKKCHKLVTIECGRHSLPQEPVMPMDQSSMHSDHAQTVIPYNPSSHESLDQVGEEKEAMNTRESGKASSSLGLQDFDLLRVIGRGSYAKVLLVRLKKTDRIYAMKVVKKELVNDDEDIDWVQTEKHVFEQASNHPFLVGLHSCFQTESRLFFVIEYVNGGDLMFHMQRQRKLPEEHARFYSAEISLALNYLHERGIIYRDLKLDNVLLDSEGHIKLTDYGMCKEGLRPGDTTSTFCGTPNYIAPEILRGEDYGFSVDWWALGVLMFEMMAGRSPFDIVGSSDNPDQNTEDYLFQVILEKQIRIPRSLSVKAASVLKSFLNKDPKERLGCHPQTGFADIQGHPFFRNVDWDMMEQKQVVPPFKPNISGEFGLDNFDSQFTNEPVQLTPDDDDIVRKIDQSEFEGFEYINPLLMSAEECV

[10] = biological target: T5, Aurora A (Homo sapiens, UniProt O14965); assay: Aurora A IMAP TR-FRET assay; format: biochemical; settings: in-house, mean ± SD
T5 construct: purchased Millipore 14-511

[11] = biological target: T6, Tel-Syk fusion protein in HEK293 cells (Homo sapiens, UniProt P41212+P43405); assay: Tel-Syk biomarker assay (in-cell western, Syk Y525/526 phosphorylation); format: cell-based
T6 construct: human Syk (NM_003177.5) kinase domain corresponding to amino acids 341–612; myristoylation motif (N); expressed in transfected cells
T6 sequence (P41212+P43405 fused): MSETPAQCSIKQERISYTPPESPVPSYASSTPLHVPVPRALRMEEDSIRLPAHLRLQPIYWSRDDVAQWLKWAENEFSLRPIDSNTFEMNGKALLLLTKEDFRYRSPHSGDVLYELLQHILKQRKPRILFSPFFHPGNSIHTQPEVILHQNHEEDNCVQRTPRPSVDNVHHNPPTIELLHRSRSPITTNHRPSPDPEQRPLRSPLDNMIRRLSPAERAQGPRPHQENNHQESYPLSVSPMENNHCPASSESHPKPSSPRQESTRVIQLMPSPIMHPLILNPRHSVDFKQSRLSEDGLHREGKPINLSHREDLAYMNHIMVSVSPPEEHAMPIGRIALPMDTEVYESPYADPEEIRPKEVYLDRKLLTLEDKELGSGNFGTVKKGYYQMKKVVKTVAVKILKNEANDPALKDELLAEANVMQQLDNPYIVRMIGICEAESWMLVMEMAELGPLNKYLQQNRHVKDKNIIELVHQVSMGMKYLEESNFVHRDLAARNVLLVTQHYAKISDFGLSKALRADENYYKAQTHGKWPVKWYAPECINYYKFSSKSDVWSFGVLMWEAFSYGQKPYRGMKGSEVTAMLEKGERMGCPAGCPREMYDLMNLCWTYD
Protocol: HEK293 T-REx™ (Life Technologies, Grand Island, NY) stably transfected with human TEL-Syk (cloned as described prior section DNA constructs) were plated on black poly-D-lysine coated 96-well plates (BD Biosciences, San Diego, CA) in culture media containing tetracycline-free fetal bovine serum (Clontech, MountainView, CA) for 16 hours in a tissue culture incubator. Tel-Syk expression was induced for 6 hours in fresh growth media containing 1 μg/ml tetracycline (Sigma Chemicals, St. Louis, MO). […] Plates were blocked with Odyssey Blocking Buffer for 90 minutes at room temperature and incubated overnight at 4°C on a rotating platform with rabbit phospho-Syk (1:1000) and mouse V5 (1:2500) primary antibodies diluted in Odyssey Blocking Buffer. The plates were washed 5 times with 1X PBS + 0.1% Tween-20, incubated for 1 hour at room temperature with anti-rabbit IR680 (1:1000) and anti-mouse IR800CW (1:1000) secondary antibodies diluted in Odyssey Blocking Buffer, and washed 5 additional times with 1X PBS + 0.1% Tween-20 at room temperature. The plates were scanned on the Li-Cor Odyssey instrument (Li-Cor Biosciences, Lincoln, NE) in the 700 and 800 channels.
For the TEL-Syk assay, the intensity values for the 700 and 800 channel were exported as text files in ActivityBase (IDBS, Guildford, UK) to derive the ratios that reflect kinase activity. […]

For COc1cc(Nc2ncc(F)c(Nc3ccc4c(n3)NC(=O)C(C)(C)O4)n2)cc(OC)c1OC [R406, reference compound], the exposure producing myelosuppression [1] is given as 120 µM·h.

For c1cc(CC2CCOCC2)n2nc(Nc3ccc4c(NC5CCOCC5)n[nH]c4c3)nc2c1 [CC-509, [3-(2H-3,4,5,6-tetrahydropyran-4-ylamino)(1H-indazol-6-yl)][5-(2H-3,4,5,6-tetrahydropyran-4-ylmethyl)(2H-1,2,4-triazolo[1,5-a]pyridin-2-yl)]amine], the remaining activity at 3 µM [2] was 68%, the Ki [3] was 18 nM and the “mode of inhibition with respect to the Syk ATP binding site” value ([3]; based on enzyme kinetics) was “mixed competitive inhibitor”. For the same compound, the AUC(0-inf) ([4]; iv, i.v. 2 mg/kg, male rats) was 4.02 ± 0.7 µM·h, the clearance ([4]; iv, i.v. 2 mg/kg, male rats, read-out: clearance (CL)) was 18.9 ± 3.5 mL/min/kg and the MRT ([4]; iv, i.v. 2 mg/kg, male rats, read-out: mean residence time (MRT)) was 2.3 ± 1.5 h. For the same compound, the Vd ([4]; iv, i.v. 2 mg/kg, male rats, read-out: volume of distribution (Vss)) was 2.8 ± 2.36 L/kg, the AUC(0-inf) ([4]; oral 10 mg/kg, female rats) was 12 ± 1 µM·h and the Cmax ([4]; oral 10 mg/kg, female rats) was 4.4 ± 0.2 µM. For the same compound, the Tmax ([4]; oral 10 mg/kg, female rats, read-out: time of maximal plasma concentration (converted)) was 0.5 h, the “other proinflammatory analytes in the paw (IL-1β, IL-6, CRP)” value ([5]; day 18) was “No other significant effects” and the “MCP-1 in the paw” value ([5]; day 18, 15 mg/kg q.d. and b.i.d. groups, p<0.01) was “significantly reduced”. For the same compound, the “RANTES in the paw” value ([5]; day 18, all CC-509 dose levels, p<0.001) was “significantly reduced”, the “KC in the paw” value ([5]; day 18, only in the 15 mg/kg b.i.d. group, p<0.05) was “reduced” and the “MIP-1α in the paw” value ([5]; day 18, CC-509 all dose levels p<0.01, indomethacin p<0.05) was “significantly reduced”. It also gave a remaining activity at 3 µM [6] of 102%, a remaining activity at 3 µM [7] of 4% and a remaining activity at 3 µM ([8]; 3 µM, KM ATP, read-out: % control) of 1%. The IC50 ([8]; 10-point dose-response, commercial vendor) was 50 nM and 53.9 nM, the remaining activity at 3 µM [9] was 88% and the IC50 [10] was 220 ± 50 nM. The IC50 [11] was 610 ± 190 nM.
